Reference: patent publication US12104170B2, “Methods for deriving dopaminergic neurons from pluripotent stem cells” (MINERVA BIOTECHNOLOGIES CORPORATION, priority 2020, dated 2024)

B1: WNT3A: beta-catenin agonist added to pluripotent stem cell media at 100 ng/mL for 48 hours before differentiation (protein, UniProt P56704 19-352, looked up)
Protein Wnt-3a: SYPIWWSLAVGPQYSSLGSQPILCASIPGLVPKQLRFCRNYVEIMPSVAEGIKIGIQECQHQFRGRRWNCTTVHDSLAIFGPVLDKATRESAFVHAIASAGVAFAVTRSCAEGTAAICGCSSRHQGSPGKGWKWGGCSEDIEFGGMVSREFADARENRPDARSAMNRHNNEAGRQAIASHMHLKCKCHGLSGSCEVKTCWWSQPDFRAIGDFLKDKYDSASEMVVEKHRESRGWVETLRPRYTYFKVPTERDLVYYEASPNFCEPNPETGSFGTRDRTCNVSSHGIDGCDLLCCGRGHNARAERRREKCRCVFHWCCYVSCQECTRVYDVHTCK

Tests used:
[1] = system: human iPS cells differentiating to dopaminergic neurons; assay: Addition of forms of vitamin B6 or vitamin A around Day 20 of differentiation (morphology, markers, neural projections); type: cell-based; conditions: for empirically determined optimal concentration: added around Day 20 and onward, final concentration; for effect of adding vitamin B6 form on dopaminergic neurons: added starting around Day 21, retinol, retinyl acetate and vitamin C in all conditions (FIG. 16)
Description: In this next set of experiments, we followed Protocol A, except that around Day 20, the neural base media will be exchanged for one that contains approximately 1.2 uM retinol and 0.17 uM retinyl acetate and various other forms of vitamin B6 were then added (FIG. 1, Example 2). Resultant cells were analyzed for cell morphology, yield of TH and DAT positive cells relative to Tuj1 positivity and the number and length of neural projections as an indicator of engraftment potential.
We assessed the effects of various forms of vitamin B6 on differentiation of dopaminergic neurons from human iPS cells. […] The differentiation protocol called Protocol A (FIG. 1) was followed until Day 20. From Day 21 onward, to the basal media was added vitamin A in the form of retinol at 1.2 uM and retinyl acetate at 0.17 uM and vitamin C as ascorbic acid-2-phosphate at a final concentration of about 200 nM. It is important to note that the neural basal media that was used in all conditions contained 10 uM pyridoxal, so pyridoxal at this low concentration was present from the onset of differentiation.
In addition to the vitamins A and C which were constant throughout all conditions, various forms of vitamin B6 were added: 16 uM pyridoxine (FIG. 12A-12K), or 11 uM pyridoxal (FIG. 13A-13K), or 20 uM pyridoxal-5′-phosphate also known as PLP (FIG. 14A-14K), or all of the vitamin Bs. To assess the quality of the resultant dopaminergic neurons we examined: a) the percentage of the GIRK2 positive cells that were also positive for TH, Tyrosine hydroxylase which is an enzyme that mediates the conversion of L-tyrosine to L-3,4-dihydroxyphenylalanine, which is the rate limiting step in dopamine synthesis; this percentage should be high as an indicator of yield of the desired cell type -dopaminergic neurons; b) The percentage of TUJ positive neurons that were also TH positive; TUJ is a pleiotropic marker of neurons; only those that are TH positive are truly dopaminergic neurons; c) the percentage of the TUJ positive cells that are also positive for DAT, the dopamine transporter protein; d) the shape of the cell body should have the characteristic elongated triangular shape of neurons; and e) the length and number of neural projections associated with being TH and DAT positive. For engraftment, the length and number of neural projections is considered to be the most important factor.

[2] = system: human iPS cells differentiated to dopaminergic neurons; assay: Immunofluorescent staining for GIRK2, TH, DAT, Tuj1 and morphology (yield and purity of dopaminergic neurons); type: cell-based; conditions: iPSCs grown in E8 plus WNT3A for 48 hours before initiating differentiation
Description: On Day 24, immunofluorescent staining was performed to detect the presence of molecular markers of dopaminergic neuron progenitors generated using Protocol A (FIG. 2A-FIG. 2L) or Protocol C.2 (FIG. 3A-FIG. 3L). GIRK2 (G-protein-regulated inward-rectifier potassium channel 2) is expressed in dopaminergic neurons while Tuj1 (neuron-specific class Ill B-tubulin) is a pan-neural marker. TH (tyrosine hydroxylase) is considered a gold standard in the identification of dopaminergic neurons because it is an enzyme that catalyzes the conversion of L-tyrosine to L-3,4-dihydroxyphenylalanine, which is the rate limiting step in dopamine synthesis. DAT (dopamine active transporter) is equally important as it is the transmembrane protein that pumps dopamine from the synapse back into the cytosol. Both differentiation protocols produced cells that were positive for all appropriate molecular markers. […]
In addition to the vitamins A and C which were constant throughout all conditions, various forms of vitamin B6 were added: 16 uM pyridoxine (FIG. 12A-12K), or 11 uM pyridoxal (FIG. 13A-13K), or 20 uM pyridoxal-5′-phosphate also known as PLP (FIG. 14A-14K), or all of the vitamin Bs. […] FIG. 17 is a graph of the amount of dopamine and its metabolites, measured by HPLC, present in the conditioned media from only 200,000 cells taken at Day 30, Day 40, Day 50 or Day 60. […]

| Molecule | empirically determined optimal concentration [1] | effect of adding vitamin B6 form on dopaminergic neurons [1] | survival of differentiating cells [2] |
| --- | --- | --- | --- |
| Cc1ncc(COP(=O)(O)O)c(C=O)c1O [pyridoxal-5′-phosphate] | 10 to 40 µM | greatly increase dopamine yield and engraftment potential |  |
| Cc1ncc(CO)c(CO)c1O [pyridoxine] | 10 to 20 µM |  |  |
| Cc1ncc(CO)c(C=O)c1O [pyridoxal] | 5 to 20 µM | greatly increase dopamine yield and engraftment potential |  |
| B1 |  |  | increased survival at Day 60 |
